Test systems include HL-60(TB) leukemia; OVCAR-8 ovarian; KM12 colon; A549 NSCLC; MOLT-4 leukemia; T-47D breast; OVCAR-4 ovarian; U251 CNS; NCI-H226 lung; M14 melanoma.
What all share (test): inhibition of tumour cell growth, NCI panel, 48 h

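Step 1: Grow cells in 96-well plates. Step 2: Expose to compound for 48 hours at 5 concentrations. Step 3: Interpolate endpoints linearly; if unreached, use highest concentration. The concentration for 50% growth inhibition is given as GI50. TGI: concentration producing complete growth inhibition.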 Where a SMILES comes first, the peptide text is derived from it. Some results are limits rather than exact numbers.

For `COc1cc(/C=C2\C(=O)Nc3ccc(Cl)cc32)cc(OC)c1OC`, the GI50 was 13.4 µM with HL-60(TB) leukemia; 22.9 µM in the test on OVCAR-8 ovarian; 4.07 µM in the test on KM12 colon; 41.2 µM in the test with A549 NSCLC; 75.1 µM in the test on MOLT-4 leukemia; over 100 µM in the test with T-47D breast. Besides, the GI50 was 43.9 µM in the test on OVCAR-4 ovarian, 13.1 µM in the test with U251 CNS and 51.3 µM in the test with NCI-H226 lung. In addition, the TGI with HL-60(TB) leukemia, with OVCAR-8 ovarian, with KM12 colon, in the test on A549 NSCLC, in the test with MOLT-4 leukemia and with T-47D breast was over 100 µM each time. Also, the TGI was over 100 µM in the test with OVCAR-4 ovarian, 32.4 µM in the test on U251 CNS and over 100 µM with NCI-H226 lung.

As for `O=C([O-])c1ccccc1Nc1ccccc1C(=O)[O-].[OH3+].[Zn+2]`, the TGI in the test with HL-60(TB) leukemia is 49.4 µM; with OVCAR-8 ovarian, over 66.4 µM; in the test with KM12 colon it was over 100 µM; in the test with M14 melanoma, over 100 µM; in the test with A549 NSCLC it was over 100 µM; in the test on MOLT-4 leukemia it was 99.8 µM. Also, the results for the TGI in the test with OVCAR-4 ovarian, with U251 CNS and in the test on NCI-H226 lung were 39.1 µM, 33 µM and 67 µM, respectively.

Take `COc1cc2c(c(OC)c1OC)-c1ccc(OC)c(=O)cc1C(NC(=O)CCCCCNc1ccc(N=[N+]=[N-])cc1[N+](=O)[O-])CC2` (stereo unspecified): the TGI in the test with HL-60(TB) leukemia was under 0.01 µM; with OVCAR-8 ovarian, over 100 µM; in the test with M14 melanoma it was 5.44 µM; in the test on A549 NSCLC it was 5.8 µM; in the test with MOLT-4 leukemia, under 0.01 µM; in the test with T-47D breast it was over 31.6 µM. Also, the TGI in the test with OVCAR-4 ovarian is 16.2 µM; in the test with U251 CNS it was 11.1 µM; with NCI-H226 lung, under 0.01 µM.

On to `N#CC1(C#N)C(=O)c2ccncc2C1=O`, for which the TGI in the test on HL-60(TB) leukemia, with OVCAR-8 ovarian, in the test on KM12 colon, in the test on M14 melanoma, in the test on A549 NSCLC and with T-47D breast was over 100 µM throughout. Moreover, the TGI in the test on OVCAR-4 ovarian, in the test on U251 CNS and in the test with NCI-H226 lung was over 100 µM in each case.

For `CCCCC1Nc2ccccc2-c2ccnc(Cl)c21` (stereo unspecified), the TGI in the test on HL-60(TB) leukemia is 51.8 µM; with KM12 colon, 69 µM; with M14 melanoma, 43.1 µM; in the test on A549 NSCLC, over 100 µM; in the test with MOLT-4 leukemia it was 50.9 µM; with OVCAR-4 ovarian, 91.5 µM. For the same compound, the TGI in the test with U251 CNS was found to be 50.1 µM; in the test on NCI-H226 lung it was 39.9 µM.

Take `Brc1ccc2nc(-c3cccs3)nc(N3CCN(c4ccccc4)CC3)c2c1`: the TGI in the test with HL-60(TB) leukemia, with OVCAR-8 ovarian, in the test on KM12 colon, with M14 melanoma, in the test with A549 NSCLC and in the test on T-47D breast was over 100 µM each time. The TGI with OVCAR-4 ovarian, in the test on U251 CNS and in the test with NCI-H226 lung was over 100 µM throughout.

Consider `N=C1c2ccccc2C(=O)c2c(NCCNCCO)ccc(O)c21`, for which the TGI in the test on HL-60(TB) leukemia is 27.6 µM; in the test on OVCAR-8 ovarian, over 76.2 µM; with KM12 colon, 33.1 µM; with M14 melanoma, 24.8 µM; in the test with A549 NSCLC, 22.6 µM; in the test on MOLT-4 leukemia, 10.8 µM. Also, the TGI was 83.3 µM in the test on OVCAR-4 ovarian, 18.9 µM in the test on U251 CNS and 44.7 µM in the test on NCI-H226 lung.

For `COC1=CC(c2ccc[nH]2)=N/C1=C\c1[nH]c(C)c(CC(=O)NCc2ccccc2)c1C`, the GI50 was 1.63 µM in the test with HL-60(TB) leukemia; 1.12 µM in the test with KM12 colon; 1.66 µM in the test with A549 NSCLC; 1.35 µM in the test with OVCAR-4 ovarian; 1.23 µM in the test with U251 CNS. Also, the TGI in the test with HL-60(TB) leukemia was 3.47 µM; in the test with KM12 colon, 2.59 µM; in the test with A549 NSCLC it was 3.15 µM; in the test with OVCAR-4 ovarian, 2.93 µM; in the test on U251 CNS it was 2.49 µM.

As for `CC(=O)NC(CS)C(=O)NC(CO)C(=O)NC(CO)C(=O)NC(Cc1c[nH]c2ccccc12)C(=O)N1CCCC1C(=O)NC(CO)C(=O)NC(Cc1c[nH]c2ccccc12)C(=O)NC(Cc1c[nH]cn1)C(=O)NC(CO)C(=O)NC(Cc1c[nH]c2ccccc12)C(=O)NCC(=O)NCC(=O)NC(C)C(=O)NC(CCC(N)=O)C(=O)NC(CCCCN)C(=O)NC(C)C(=O)NC(CCCNC(=N)N)C(=O)NC(CCCCN)C(N)=O` (stereo unspecified) (Ac-CSSWPSWHSWGGAQKARK-NH2; configuration not given here), the TGI in the test on HL-60(TB) leukemia was 34.5 µM; with OVCAR-8 ovarian it was over 50 µM; in the test with KM12 colon it was 32.1 µM; with M14 melanoma, over 50 µM; in the test with A549 NSCLC it was over 50 µM; in the test with MOLT-4 leukemia, over 50 µM. Moreover, the TGI in the test with T-47D breast was 28.5 µM; in the test with OVCAR-4 ovarian, over 50 µM; in the test on U251 CNS, 27.7 µM; in the test on NCI-H226 lung, over 50 µM.

On to `COc1cc(-c2n/c(=C\c3c(O)[nH]c4ccccc34)cc3c2=Nc2ccccc2-3)ccc1F`, for which the GI50 in the test on HL-60(TB) leukemia was over 100 µM; in the test on OVCAR-8 ovarian, 8.4 µM; in the test on KM12 colon it was 7.7 µM; in the test on M14 melanoma it was 5.2 µM; in the test with A549 NSCLC, 7.06 µM; in the test on MOLT-4 leukemia, 9.61 µM. The GI50 in the test on T-47D breast is 6.87 µM; with OVCAR-4 ovarian, 2.32 µM; with U251 CNS it was 2.05 µM; with NCI-H226 lung it was 19.9 µM. Besides, the TGI was over 100 µM in the test with HL-60(TB) leukemia; 31.5 µM in the test on OVCAR-8 ovarian; over 100 µM in the test on KM12 colon; 22.3 µM in the test with M14 melanoma; 23.5 µM in the test on A549 NSCLC; 97.9 µM in the test with MOLT-4 leukemia. Also, the TGI is 82 µM in the test on T-47D breast, 6.4 µM in the test on OVCAR-4 ovarian, 4.19 µM in the test on U251 CNS and over 100 µM with NCI-H226 lung.

These data come from PubChem BioAssay (NCI).
